Measurements as given in the METLIN SMRT retention time set (Domingo-Almenara et al. 2019).

assay: gradient 5% acetonitrile 3 min, to 50% in 2 min, to 85% in 15 min, held 3 min, 100 µL/min; conditions: column: Zorbax Extend-C18 2.1 x 50 mm; eluents: water / acetonitrile, 0.1% formic acid
Procedure, shortened: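 The system's dead and dwell volumes were 40 μL and 900 μL, with a Zorbax Extend-C18 column (2.1 × 50 mm, 1.8 μm) run at 100 μL/min in water and acetonitrile containing 0.1% formic acid each. Pure standards were analyzed in mixtures of ~100 molecules by HPLC–quadrupole time-of-flight mass spectrometry in positive and negative ionization mode. Retention time was assigned from computationally picked, manually inspected adduct peaks.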

RP-LC retention time	Compound
765 s	O=C(NCCc1cccs1)C1CCN(c2cnn(Cc3ccccc3)c(=O)c2)CC1
755 s	Nc1cc(C2CCN(S(=O)(=O)c3cccc(F)c3)CC2)no1
922 s	Cn1nc(-c2nnc(-c3ccc(F)cc3)o2)c2c1CCN(S(=O)(=O)c1cc(F)cc(F)c1)C2
800 s	CC1(C(=O)NCc2ccc(Cl)cc2)CN(S(C)(=O)=O)CC(=O)N1c1ccc(F)cc1 (stereo not drawn)
871 s	O=C(c1cccc(F)c1)N1CCN(c2ccc(=O)n(-c3ccc(Cl)cc3)n2)CC1
818 s	Cc1cccc(N2CCN(C(=O)c3cc4c(=O)n(C)ccc4n3C)CC2)c1C
1000 s	CCOC(=O)Nc1ccc(C(=O)/C=C/c2ccccc2)cc1
1020 s	CC(C)Cn1cc(S(=O)(=O)Nc2cc(F)ccc2Cl)c2cccnc21
755 s	COc1ccccc1CNC(=O)C1CCc2nc(N3CCCCC3)ncc2C1 (stereo not drawn)
875 s	COc1ccc(-c2cn3c(CC(=O)N(Cc4cccs4)C4CCCC4)csc3n2)cc1OC
628 s	OCCCCc1nccc2c1[nH]c1ccccc12
919 s	O=C(Cc1csc(Nc2ccc(Cl)cn2)n1)N1CCCc2ccccc21
803 s	O=C(Cc1cn(Cc2ccc(F)cc2)c2ccccc12)N1CCN(C(=O)c2ccco2)CC1
551 s	CC1(O)C=CC(=O)C=C1
905 s	O=C(c1nnc(-c2ccc(S(=O)(=O)N3CCOCC3)cc2)o1)N1CCN(c2ccccc2)CC1
1170 s	O=C(CCSc1ccc(Cl)cc1)Nc1nc(-c2ccccc2)cs1
816 s	Cc1ccc(CNC(=O)Cn2nc(C)c3nn(-c4ccccc4)c(C)c3c2=O)o1
618 s	CC(=O)OCC(=O)NCCCOc1cccc(CN2CCCCC2)c1
593 s	Cc1ccnc(NC(=O)c2ccc(Cn3cncn3)cc2)c1
762 s	Cc1ccc(CCNC(=O)C2CCCN(c3nnc(C)c4c(C)n(-c5ccccc5)nc34)C2)cc1 (stereo not drawn)
802 s	Cc1noc(-c2cc(=O)n(CC(=O)NCc3ccc4c(c3)OCO4)c3ccccc23)n1
1060 s	CN1C(=O)COc2ccc(-c3csc(NC(=O)c4cccc(Br)c4)n3)cc21

RP-LC retention time	Compound
587 s	CCc1onc(C)c1C1CCCN1Cc1cc(OC)c(O)c(OC)c1 (stereo not drawn)
1030 s	CC(=O)c1cccc(NC(=O)Cn2cccc2-c2nc(-c3ccccc3)cs2)c1
784 s	O=C([C@@H]1C[C@H](Oc2ccccc2)CN1C(=O)C1CCCC1)N1CCCC1
1020 s	O=C(Nc1ccccc1Cl)C1CN(S(=O)(=O)C2CC2)CC12CCCCC2 (stereo not drawn)
976 s	COc1ccccc1C1=NN(C(=O)c2ccccc2C)C(c2ccco2)C1 (stereo not drawn)
849 s	COc1ccc(-n2c(=O)n(C)c(=O)c3cc(C(=O)Nc4ccc(C)cc4F)cnc32)cc1
1160 s	O=c1c2sccc2n(Cc2nc(-c3ccc(F)cc3)no2)c(=O)n1Cc1ccccc1Cl
774 s	CCCN(CCC)S(=O)(=O)c1cccc(-c2cn3cccc(C)c3n2)c1
1350 s	COc1ccc(Cl)cc1NS(=O)(=O)c1cc(-c2nc(C(C)(C)C)cs2)cs1
907 s	O=C(CN1C(=O)C(C(=O)N2CCCCC2)Sc2ccccc21)N1CCN(c2ccccc2)CC1 (stereo not drawn)
701 s	Cc1ccc(CNc2nc3ccncc3n(C(C)C)c2=O)cc1
1010 s	Cc1ccc(NC(=O)Cn2nc(N(C)C)c3ccccc3c2=O)c(Br)c1
876 s	O=c1c(NCCN2CCCC2)nc2ccncc2n1Cc1ccccc1
574 s	Cc1nc(C)c(C(=O)N2CCC(N3C[C@H](O)C[C@H]3C(=O)NC3CCCCC3)CC2)s1
663 s	Cc1cc(C)nc(SCCCNC(=O)Nc2cc(C)on2)n1
1030 s	CCCCOc1cccc(C(=O)N(Cc2ccc(C)o2)C2CCS(=O)(=O)C2)c1 (stereo not drawn)
585 s	O=C(NCC(c1ccco1)N1CCN(c2ccc(F)cc2)CC1)c1cnccn1 (stereo not drawn)
726 s	Cc1ccc2c(Cl)c(C(=O)N3CCN(c4ccccn4)CC3)sc2c1
602 s	Cc1ccc(CNC(=O)C2(CCO)CCN(c3ncccn3)C2)o1 (stereo not drawn)
920 s	Cn1cc(-c2cc3n(n2)CCCN3C(=O)CCC(=O)NCCC2=CCCCC2)c2ccccc21
693 s	COc1ccc(-c2cn3c(CC(=O)NCc4ccccc4)csc3n2)cc1OC
1120 s	CCn1c(=O)c2ccccc2n(Cc2nc(-c3cccc(Br)c3)no2)c1=O

RP-LC retention time	Compound
872 s	COc1cccc(-n2c(N3CCCC(C(=O)NCCC(C)C)C3)nc3ccsc3c2=O)c1 (stereo not drawn)
980 s	COc1cccc(CNC(=O)c2c(C)sc3ccn(Cc4ccc(F)cc4)c(=O)c23)c1
974 s	Cc1cc(C)c(S(=O)(=O)N2CC(c3nc(-c4ccncc4)no3)C2)cc1C
636 s	Cc1cc(N2CCOCC2)n2nc(CN3CCN(c4ccccc4C)CC3)nc2n1
829 s	Cn1nc(-c2cccc(NC(=O)c3ccc4ccccc4n3)c2)ccc1=O
996 s	Cc1ccccc1-c1noc(CN2N=NC3C(=O)N(c4cccc(Cl)c4)C(=O)C32)n1 (stereo not drawn)
644 s	O=C(Cn1cc(-c2ccccc2)c2ncnc(N3CCOCC3)c21)NCC1CCCO1 (stereo not drawn)
604 s	CC(=O)Nc1ccc(OCC(=O)NCc2ccc(N3CCOCC3)cc2)nc1
710 s	CCS(=O)(=O)N(C1CC1)C1CCOC2(CCN(C(=O)C3CC3)CC2)C1 (stereo not drawn)
878 s	CCCC1CCC(C(=O)Nc2ccc3nc(N4CCN(c5ncccn5)CC4)cc(C)c3c2)CC1 (stereo not drawn)
678 s	CCOC(=O)c1sc(NC(=O)CSc2nccn2C)nc1-c1ccccc1
690 s	CCOc1ccc(NC(=O)C2(C)CCCCC(=O)N2)cc1 (stereo not drawn)
1060 s	CCc1cc(=O)n(CC(=O)Nc2ccc(Cl)c(Cl)c2)c(-n2nc(C)cc2C)n1
800 s	O=C1NC2(CCN(C(=O)Nc3ccccc3Cl)CC2)N=C1c1ccccc1
586 s	O=C(Nc1ccc(-c2cn3ccccc3n2)cc1)c1ccc([N+](=O)[O-])cc1
1120 s	Cc1ccccc1-c1noc(CN2C(=O)COc3ccc(Cl)cc32)n1
967 s	CCCN(C)S(=O)(=O)c1cc(-c2nc(C)cs2)n(CC(=O)N2CCCCC2)c1
971 s	O=C(Cn1ccc2ccccc21)NCc1ccc(OC(F)(F)F)cc1
814 s	COc1ccc(-n2nc3c(N4CCCC(C(=O)NCCC5=CCCCC5)C4)nnc(C)c3c2C)cc1 (stereo not drawn)
1020 s	Cc1nc(C)c(C(=O)Nc2nc(-c3ccc(OC(C)C)cc3)cs2)s1
768 s	O=C(c1cc(C2CC2)n(C2CCS(=O)(=O)C2)n1)N1CCc2ccccc21 (stereo not drawn)
715 s	COC(=O)N1CCc2ccccc2C1C(=O)NCc1ccco1 (stereo not drawn)

RP-LC retention time	Compound
732 s	CC12C=CC(=O)C=C1CCC1C2=CCC2(C)C1CC[C@@H]2C(=O)CN1CCN(c2cc(N3CCCC3)nc(N3CCCC3)n2)CC1 (stereo partly drawn)
594 s	CCC(=O)NCc1nc2c(n1CC)CN(C(=O)c1ccccc1C(F)(F)F)CC2
661 s	COc1ccc(CNC(=O)C2CC(=O)N(c3n[nH]c4cccc(F)c34)C2)cc1OC (stereo not drawn)
979 s	Cc1cccc(-c2nnc(Cc3nc(-c4cccs4)no3)o2)c1
1210 s	Cc1ccc(-c2nnc(-c3nn(C)c4c3CN(S(=O)(=O)c3ccc(C(C)(C)C)cc3)CC4)o2)cc1
985 s	CCc1cc(C(=O)Nc2cccc(OC)c2)nc2ccnn12
773 s	COc1ccc(OC)c(NC(=O)N2CCC(N3CCN(Cc4ccc(F)cc4)C(=O)C3=O)CC2)c1
728 s	COc1ccc(-c2cn3c(CC(=O)Nc4ccccc4Cl)csc3n2)cc1OC
900 s	COc1ccc(NC(=O)C2CN(S(=O)(=O)c3cccnc3)CC23CCCCC3)cc1F (stereo not drawn)
794 s	Cc1cc(=O)n(CC(=O)Nc2cccc(C)c2C)c(N(C)Cc2ccccc2)n1
794 s	CCC(=O)Nc1cnc(-c2ccc(F)cc2)nc1
700 s	CCCCSc1cc(=O)[nH]c(N)n1
1010 s	COC(=O)c1ccc(-c2nc3cnccn3c2Nc2ccc(C)cc2C)cc1
721 s	Cn1nc(CN(C(=O)c2ccc(F)cc2)c2ccccc2)c2c1CCN(S(C)(=O)=O)C2
690 s	Cc1ccc(C)c(NC(=O)Nc2ccc(-c3cn4ccc(C)nc4n3)cc2)c1
687 s	O=c1ccc(N2CCC(NS(=O)(=O)c3ccccc3C(F)(F)F)C2)n[nH]1 (stereo not drawn)
718 s	COc1ccc(CCNC(=O)Nc2nnc(SC)s2)cc1
947 s	CCOC(=O)c1ccc(NC(=O)c2cc3ccccc3c(=O)s2)cc1
589 s	COCc1nc(-c2ccc(OC3CN(Cc4ccncc4)C3)cc2)no1
622 s	Cc1ccc(C)c(CNC(=O)c2cn3c(n2)CCCC3)c1
1070 s	O=C(C1CCN(S(=O)(=O)c2cc(-c3noc(C4CC4)n3)cs2)CC1)N1CCc2ccccc21
959 s	Cc1ccc(NC(=O)N2CCCC(C)(C(=O)NCc3ccc(F)cc3)C2)cc1F (stereo not drawn)
